Experimental data taken from article PMC10070963 (Frontiers in Microbiology, 2023).

B1: LIV-I branched chain amino acid transport system (Escherichia coli K-12) (protein)
chain: EDIKVAVVGAMSGPVAQYGDQEFTGAEQAVADINAKGGIKGNKLQIVKYDDACDPKQAVAVANKVVNDGIKYVIGHLCSSSTQPASDIYEDEGILMITPAATAPELTARGYQLILRTTGLDSDQGPTAAKYILEKVKPQRIAIVHDKQQYGEGLARAVQDGLKKGNANVVFFDGITAGEKDFSTLVARLKKENIDFVYYGGYHPEMGQILRQARAAGLKTQFMGPEGVANVSLSNIAGESAEGLLVTKPKNYDQVPANKPIVDAIKAKKQDPSGAFVWTTYAALQSLQAGLNQSDDPAEIAKYLKANSVDTVMGPLTWDEKGDLKGFEFGVFDWHANGTATDAK
notes: whole-cell uptake, ABC transporter

Legend:
[1] = target: T1, SdaC (Escherichia coli, UniProt P0AAD6); test: radiolabelled uptake by whole cells, sdaC+ versus sdaC deletion; format: cell-based; conditions: M9 medium, 0.2% glucose, 37 °C; 100 μM L-serine; strain B2394 versus B2429; labelled compound (14C)
T1 construct: full-length native chromosomal sdaC, no tag; whole-cell uptake in strain lacking the other carriers, compared with its sdaC deletion B2429

[2] = substrate: C[C@@H](O)[C@H](N)C(=O)O; test: radiolabelled uptake by whole cells, initial velocity, Lineweaver-Burk; format: cell-based, Escherichia coli; conditions: M9 medium, 0.2% glucose, 37 °C, strain B2394[pMW-liv] overexpressing LIV-I, labelled compound (14C)

T1 sequence (P0AAD6 whole entry): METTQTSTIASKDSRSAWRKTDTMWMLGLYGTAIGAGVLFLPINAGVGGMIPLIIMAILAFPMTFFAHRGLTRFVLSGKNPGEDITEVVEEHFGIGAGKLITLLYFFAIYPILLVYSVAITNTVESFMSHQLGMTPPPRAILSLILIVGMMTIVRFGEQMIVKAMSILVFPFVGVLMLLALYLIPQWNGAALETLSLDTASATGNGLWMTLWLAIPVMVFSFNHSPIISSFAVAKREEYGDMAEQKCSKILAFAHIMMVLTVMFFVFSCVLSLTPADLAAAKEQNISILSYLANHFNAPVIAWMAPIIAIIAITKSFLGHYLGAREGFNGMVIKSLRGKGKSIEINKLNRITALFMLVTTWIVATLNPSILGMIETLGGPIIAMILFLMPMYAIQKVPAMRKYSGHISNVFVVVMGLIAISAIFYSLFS

Row | Molecule | radiolabelled uptake by whole cells, sdaC+ versus sdaC deletion [1] | Km [2] [µM]
1 | N[C@@H](CO)C(=O)O [L-serine] | serine transport activity of the B2394 strain possessing SdaC as the sole transporter | 
2 | B1 |  | 13.0 ± 0.9
